Assay results taken from patent US20240216384A1, “COMPOSITION FOR PREVENTING OR TREATING METABOLIC DISEASES, CONTAINING TRICYCLO DERIVATIVE COMPOUND” (ONCOCROSS CO.,LTD., priority 2021, published 2024).
Counter-ions that a name gives are not always drawn.

Columns and labels:
[1] = tested on: HepG2 cell line; assay: Oleic acid-induced fat accumulation, Oil-Red O staining; type: cell-based; conditions: for fat accumulation inhibitory effect: HepG2 treated with oleic acid, Oil-Red O
Procedure: By treating the HepG2 cell line, a liver cancer cell line, with oleic acid, fat accumulation was induced into cells, and simultaneously, JPI-289 was treated together to identify the effect of JPI-289 on inhibiting fat accumulation using the Oil-Red O staining method. Herein, INT-747, a drug that succeeded in phase 3 clinical trials for NASH indication, was treated as a positive control group.

[2] = tested on: MCF7, PC3, and HL60 cell lines; assay: MTT analysis of JPI-289 toxicity in multiple cell lines; type: cell-based
Procedure: To identify the toxicity of JPI-289 to cells, MTT analysis was performed using three cell lines: MCF7, PC3, and HL60 (indicated as Cell 1 to Cell 3 in FIG. 1, respectively). Specifically, each cell line was treated with a control group, a DMSO control group (vehicle control), and JPI-289 (10-ethoxy-8-(morpholinomethyl)-2,3,4,6-tetrahydrobenzo[h][1,6]naphthyridin-5(1H)-one dihydrochloride dihydrate) at concentrations of 0.5, 1, 5, 10, 20, and 40 uM, and then treated with MTT tetrazolium after 24, 48, and 72 hours. Then, the cell viability was measured by forming formazan crystals, dissolving the same using DMSO (dimethyl sulfoxide), and measuring the absorbance using an ELISA reader.

[3] = tested on: 3T3L1 cell line; assay: MTT analysis of JPI-289 toxicity in preadipocyte cell line; type: cell-based, mouse; conditions: 0.05 to 5 uM for 24, 48, or 72 hours
Procedure: The 3T3L1 cell line, a preadipocyte cell line, was dispensed in a 96-well plate, and treated with JPI-289 at a concentration of 0.05 to 5 uM for 24, 48, or 72 hours, and MTT analysis was performed.

[4] = tested on: mouse preadipocyte cell line 3T3L1; assay: Adipocyte differentiation / fat accumulation, Oil-Red O staining; type: cell-based; conditions: for differentiation into adipocytes: 3T3L1, Oil-Red O
Procedure: To induce differentiation of mouse preadipocyte cell line 3T3L1 into adipocytes, DMEM medium containing 10% FBS was treated with insulin, dexamethasone, and isobutylmetylxanthin (IBMX). JPI-289 was treated with a differentiation medium from the start day of inducing differentiation into adipocytes to the end of differentiation. At the end of differentiation, cells were fixed and differentiated adipocytes were stained red using Oil-Red O. The degree of staining was recorded in a photograph, Oil Red was dissolved, and the O.D. value was measured using an ELISA reader.
To identify the inhibitory effect of JPI-289 at a concentration of 5 uM or less on adipocyte differentiation, a re-experiment was performed on the 3T3L1 cell line. Specifically, JPI-289s at concentrations of 0.05, 0.1, 0.25, 0.5, 1, and 2.5 uM were treated together with the differentiation culture medium, respectively, to induce differentiation into adipocytes, and the differentiation into adipocytes and fat accumulation were identified by staining using Oil-Red O.
The fat accumulation inhibitory effects of other PARP inhibitors, 5-AIQ (10 uM), PJ34 (10 uM), and olaparib (5 uM), and JPI-289 (0.25 to 2.5 uM) were compared in the mouse preadipocyte cell line 3T3L1 by the method of Example 2 above.

[5] = tested on: PARylation; assay: PARylation in Hep3B cells in NASH environment (H2O2, TCDD); type: cell-based; conditions: 10 uM, 24 hours, 300 uM H2O2, TCDD 10 nM, compared to PJ-34
Procedure: (§1) A MOA study was conducted to identify the mechanism that has a more significant effect than other PARP inhibitors as in Example 3-1. Specifically, the Hep3B cell line was treated with 300 uM H2O2 for 2 hours to generate a ROS rich situation for NASH, and treated with TCDD (Tetrachlorodibenzo-p-dioxin) at 10 nM for 24 hours to induce overexpression of TIPARP. Then, PARylation was identified, and the influences of JPI-289 (10 uM and 24 hours) and PJ34 (10 uM and 24 hours) were identified, respectively. In addition, DMOG, which induces hypoxia by inhibiting the degradation of HIF-1α, a hypoxia-related gene that appears in the early stages of fibrosis, was treated at 1 mM for 24 hours, and the influences of JPI-289 (10 uM and 24 hours) and PJ34 (10 uM and 24 hours) were also identified. In addition, as a positive control group, it was compared with INT-747, a drug that successfully completed phase 3 clinical trials for NASH indication.

[6] = tested on: TIPARP; assay: TIPARP expression in Hep3B cells upon TCDD; type: cell-based; conditions: for expression of TIPARP: 10 uM, 24 hours, upon TCDD administration (FIG. 7B)
Procedure: as §1

[7] = tested on: HIF-1α; assay: HIF-1α expression in Hep3B cells upon DMOG; type: cell-based; conditions: 10 uM, 24 hours, DMOG 1 mM
Procedure: as §1

[8] = tested on: PARP1; assay: PARP1 expression in Hep3B cells upon TCDD; type: cell-based; conditions: compared to INT-747-treated group
Procedure: as §1

[9] = tested on: vimentin; assay: Vimentin expression in Hep3B cells upon TCDD; type: cell-based; conditions: compared to INT-747-treated group
Procedure: as §1

[10] = tested on: HIF-1α; assay: HIF-1α expression in liver of high-fat diet mice, tissue immunochemical analysis; type: in vivo; conditions: JPI-289 50 mpk for 6 weeks, compared to PJ34 (10 mpk) or INT-747 (10 mpk)
Procedure: To identify the HIF-1 inhibitory effect of INT-747 and JPI-289 in Example 4-1 also in vivo, 5-week-old mice were placed on a high-fat diet (HFD) 1 week after introduction. After 6 weeks, JPI-289 (50 mpk), PJ34 (10 mpk), and INT-747 (10 mpk) were administered for a total of 6 weeks, respectively, and the level of HIF-1α expression in the liver was identified by tissue immunochemical analysis.

[11] = tested on: TGF-beta2; assay: TGF-beta2 inhibition at RNA level in Hep3B cells; type: cell-based; conditions: compared to INT-747
Procedure: as §1
The inhibitory effects of TGF-beta2 (a downstream signal of HIF-1) by JPI-289 and INT-747 in Hep3B cell line were compared at the RNA level under the same conditions as in Example 4-1.

[12] = tested on: high-fat diet mouse model; assay: High-fat diet animal model: body weight, liver size and weight; type: in vivo; conditions: 6 weeks; for liver size and weight: compared to high-fat diet group
Procedure: A high-fat diet animal model was created, and after 6 weeks, JPI-289 (JPI) and a positive control group of INT-747 (INT) were administered for a total of 6 weeks (FIG. 12), and body weight, liver size, and weight were checked. As a result, weight loss was identified in the group administered 50 mpk of JPI-289 compared to the high-fat diet group and the INT-747 administration group (FIG. 13). In addition, compared to the high-fat diet group, liver size and weight were decreased in the JPI-289 10 mpk administration group, JPI-289 50 mpk administration group, and INT-747 10 mpk administration group.

[13] = tested on: STAM™ mouse model; assay: STAM mouse model, short-term (3 weeks) administration; type: in vivo
Procedure: Streptozotocin was administered on the second day after birth, and a high-fat diet was administered starting 4 weeks after birth, causing non-alcoholic steatohepatitis (NASH) at 7 to 8 weeks of age. To identify the effect of JPI-289 on NASH and early fibrosis in the STAM™ mouse model (FIG. 15) in which fibrosis is induced by steatohepatitis at 9 to 12 weeks, the drug was administered at 10 mg/kg and 50 mg/kg, respectively for a total of 3 weeks, from 6 to 9 weeks, and the fibrosis-induced area was identified (FIG. 16).
JPI-289 was administered as in Example 6-1, and the NAFLD score and ballooning score were identified as values for evaluating fatty liver.

[14] = tested on: STAM™ mouse model; assay: STAM mouse model, long-term (6 weeks) administration; type: in vivo
Procedure: After administering JPI-289 (10 mg/kg) for a total of 6 weeks from 6 to 12 weeks in the same manner as in Example 6 (FIG. 19), the fibrosis area was checked.
After administering JPI-289 (10 mg/kg) for a total of 6 weeks from 6 to 12 weeks in the same manner as in Example 6, the NAFLD score and ballooning score were checked to identify the degree of inhibition of fatty liver.

[15] = 10 mg/kg, 6 weeks, compared to control group

## CC[C@H]1[C@@H](O)[C@@H]2[C@H](CC[C@]3(C)[C@@H]([C@H](C)CCC(=O)O)CC[C@@H]23)[C@@]2(C)CC[C@@H](O)C[C@@H]12 [INT-747, reference compound]
[1]
  fat accumulation inhibitory effect: about 13%

## CCOc1cc(CN2CCOCC2)cc2[nH]c(=O)c3c(c12)NCCC3 [JPI-289, 10-ethoxy-8-(morpholinomethyl)-2,3,4,6-tetrahydrobenzo[h][1,6]naphthyridin-5(1H)-one dihydrochloride dihydrate]
[2]; concentrations of 20 and 40 uM
  toxicity to cells (MTT cell viability): toxic
[2]; up to a concentration of 10 uM, for 72 hours
  toxicity to cells (MTT cell viability): not toxic
[3]
  toxicity (MTT analysis): no significant effect
[4]; 250 nM (0.25 uM), 3T3L1
  fat accumulation decrease: about 37%
[4]; 5 uM or higher
  differentiation into adipocytes: inhibited depending on the concentration
[4]; 5 uM or higher, Oil-Red O
  fat accumulation in 3T3L1 cells: significantly decreased
[4]; 0.05 to 2.5 uM
  differentiation into adipocytes: inhibited depending on the concentration
[4]; JPI-289 2.5 uM, 3T3L1
  fat accumulation inhibitory effect compared to olaparib 5 uM: similar
[4]; JPI-289 0.25 to 2.5 uM, 3T3L1
  fat accumulation inhibitory effect compared to 5-AIQ (10 uM) and PJ34 (10 uM): significantly superior
[4]; Mus musculus, 3T3-L1, 50 nM (0.05 uM), 3T3L1, read-out: differentiation inhibitory effect
  inhibition at 0.05 µM: ~15%
[1]; HepG2, high concentrations
  concentration dependence of fat accumulation inhibition: more effective at high concentrations
[1]
  fat accumulation inhibitory effect: about 21%
[5]
  PARylation: significantly inhibited
[6]
  expression of TIPARP: significantly increased
[6]; upon TCDD, compared to INT-747-treated group (FIG. 8)
  TIPARP: increased
[7]
  expression of HIF-1α: significantly decreased
[8]
  expression of PARP1: significantly decreased
[9]
  expression of vimentin, a fibrosis marker: decreased
[10]
  HIF-1α expression in the liver: significantly decreased
[11]
  TGF-beta2 at the RNA level: significantly inhibited
[12]; 10 mpk
  liver size and weight: decreased
[12]; 50 mpk
  liver size and weight: significant decrease
[12]; 50 mpk, compared to high-fat diet group and INT-747 group
  body weight: weight loss
[13]; 10 mg/kg and 50 mg/kg, 3 weeks
  NAFLD score: decrease
  ballooning score: decrease
[13]; 10 mg/kg and 50 mg/kg, 3 weeks (6 to 9 weeks of age)
  fibrosis area: significantly decreased
[13]; administered for 3 weeks, all dose groups
  overall effect versus control group: more effective than the control group
[14]; 10 mg/kg, 6 weeks (6 to 12 weeks), compared to Vehicle
  fibrosis area: significantly decreased
[14]; [15]
  NAFLD score: significantly decreased
  ballooning score: decreased
[14]; low dose for 6 weeks
  overall effect versus control group: superior effect compared to the control group

## CN(C)CC(=O)Nc1ccc2[nH]c(=O)c3ccccc3c2c1 [PJ34, reference compound]
[6]
  expression of TIPARP: almost no increase
[7]
  expression of HIF-1α: did not decrease
